The text below walks through data of ChEMBL document CHEMBL5727601, “Isoquinolones as BTK inhibitors” (2020).

The target of this assay is Tyrosine-protein kinase BTK (Homo sapiens, UniProt Q06187). Put plainly: Lanthscreen Eu Kinase Binding assay: A Lanthscreen Eu Kinase Binding assay (Life Technologies) was performed to quantitate the ability of test compounds to bind to BTK. The assay is based on the binding and displacement of Alexa Fluor647-labeled Kinase Tracer #236 to the ATP-binding site of human full length His-tagged BTK (Life Technologies cat # PV3587) with TR-FRET detection using a europium-labeled anti-His antibody. The assay was assembled in 384-well low volume NBS black plates (Corning) where 2 nM BTK and test compound in DMSO at varying concentrations were pre-incubated for 30 min at 28° C. in assay buffer consisting of 50 mM HEPES, pH 7.4, 10 mM MgCl2, 1 mM EGTA. 100 μM Na3VO4 and 0.01% Brij 35. Then, 2 nM of Eu-anti His antibody and 30 nM Kinase Tracer were added and incubated for […] at 28° C. Following incubation, TR-FRET signal was read on an Envision plate reader (Excitation: 340 nm; Emissions: 615 and 665 nm). The 665: 615 nm emission ratio was calculated and converted to POC compared to control and blank wells.
Chain of Tyrosine-protein kinase BTK (Q06187 whole entry): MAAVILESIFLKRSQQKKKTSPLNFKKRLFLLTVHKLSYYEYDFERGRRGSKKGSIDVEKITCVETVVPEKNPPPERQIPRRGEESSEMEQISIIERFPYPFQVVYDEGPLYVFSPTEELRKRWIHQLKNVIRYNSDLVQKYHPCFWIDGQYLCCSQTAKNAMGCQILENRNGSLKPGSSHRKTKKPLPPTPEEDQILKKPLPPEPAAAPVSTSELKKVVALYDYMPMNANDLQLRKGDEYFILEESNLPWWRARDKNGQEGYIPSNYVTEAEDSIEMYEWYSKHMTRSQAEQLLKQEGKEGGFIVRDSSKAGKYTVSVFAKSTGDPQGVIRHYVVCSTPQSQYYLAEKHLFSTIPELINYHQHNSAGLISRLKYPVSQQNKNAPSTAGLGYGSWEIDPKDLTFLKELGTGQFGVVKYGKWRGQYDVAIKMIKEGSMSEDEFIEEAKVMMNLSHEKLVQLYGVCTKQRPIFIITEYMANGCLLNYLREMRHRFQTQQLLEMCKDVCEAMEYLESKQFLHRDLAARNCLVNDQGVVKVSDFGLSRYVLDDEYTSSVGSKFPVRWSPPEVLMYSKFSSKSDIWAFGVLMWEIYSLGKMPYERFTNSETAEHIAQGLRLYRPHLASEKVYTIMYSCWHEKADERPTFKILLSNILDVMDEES

Take `C=CC(=O)N1CC(c2cc3cc(C4CC4)ccc3c(=O)n2-c2cccc(-c3ccnc(N)c3)c2CO)C1`: the IC50 (usually the concentration that gives 50% inhibition) was 900 pM.
